Reference: patent US20230295215A1, “NOVEL MRNA 5'-END CAP ANALOGS MODIFIED WITHIN PHOSPHATE RESIDUES, RNA MOLECULE INCORPORATING THE SAME, USES THEREOF AND METHOD OF SYNTHESIZING RNA MOLECULE OR PEPTIDE” (Uniwersytet Warszawski, priority 2020, published 2023)

Key:
[1] = cited from earlier work; for translation efficiency: relative to the compound without modification
[2] = system: 3T3-L1 and JAWS II cells; assay: Gaussia luciferase protein expression from capped mRNA transfected into mammalian cells; assay type: cell-based, murine; conditions: mRNAs modified with the two trinucleotide cap analogs compared with each other
Procedure: Transcripts incorporating at the 5′ end compounds according to the invention or benchmark (reference) compounds were obtained using in vitro transcription method in the presence of RNA polymerase T7 and DNA template containing the […] promoter sequence for this polymerase. In order to analyze the capping efficiency, short RNA transcripts were obtained as described in Example 9. The transcription yielding RNAs of 35 nt in length was carried out in the presence of selected compounds according to the invention or reference compounds representing state of the art and containing the same modifications of phosphate groups as the analyzed compounds according to the invention. The resulting RNAs were treated with DNAzyme 10-23 in order to shorten them and reduce 3′ end heterogeneity and analyzed in 15% polyacrylamide gel, which enabled separation of capped and uncapped RNAs. In order to analyze protein expression yield in mammalian cells, mRNAs carrying compounds according to the invention or reference compounds and encoding Gaussia luciferase as a reporter gene were obtained. […] The obtained mRNAs were introduced into mammalian cell lines (fibroblasts—3T3-L1 and dendritic cells—JAWS II) using transfection with lipofectamine, followed by measuring Gaussia luciferase expression in the extracellular medium at appropriate time intervals by the luminescence method as described in Example 13. […]

Compound: CO[C@@H]1[C@H](O)[C@@H](COP(=O)(O)OP(=O)([S-])OP(=O)(O)OC[C@H]2O[C@@H](n3cnc4c(=O)[nH]c(N)nc43)[C@H](O)[C@@H]2O)O[C@H]1n1c[n+](C)c2c(O)nc(N)nc21 (stereo partly drawn) [β-S-ARCA]
- translation efficiency of mRNA ([1]; in vitro and in vivo): significant increase in translation efficiency

Compound: COC1C(O)C(COP(=O)(O)OP(=O)(S)OP(=O)(O)OCC2OC(n3cnc4c(=O)[nH]c(N)nc43)C(O)C2O)OC1n1c[n+](C)c2c(=O)[nH]c(N)nc21 (centres unmarked) [m2^7,2′-OGppspG D2]
- translation efficiency [1]: increases

Compound: m2^7,3′-OGppCH2pG
- protein expression ([1]; compared to mRNA obtained with m2^7,3′-OGpppG (no O by CH2 substitution)): significant reduction in protein expression
- translation efficiency [1]: decreases

Compound: m^7GppCH2pAmpG
- translational properties [2]: very similar translational properties
